Test results reported in patent US9937178B2, “Methods of identifying and using MDM2 inhibitors” (DUKE UNIVERSITY, priority 2011, dated 2018).

Key:
[1] = system: BT474, SKBR3, AU565 and SUM190 cells; experiment: Apoptotic cell death (Annexin V FACS) in parental lapatinib-sensitive lines; type: cell-based; settings: all four parental sensitive cell lines
Protocol: (§1) FIG. 2 is a set of graphs showing the percentage of cells undergoing apoptotic cell death for each of the four cell lines and their matched resistant cell line in the presence or absence of lapatinib and/or an MDM2 inhibitor, MI-219, as measured by FACS analysis for Annexin V. Results are expressed as mean +/− SEM of Annexin V positive cells.
(§2) BT474, SKBR3, and AU565 cells were obtained from ATCC. SUM190 cells were obtained from Asterand, Inc. All cell lines were cultured in RPMI medium containing 10% fetal bovine serum (FBS). Lapatinib-resistant cells (rBT474, rSKBR3, rAU565, and rSUM190) were established as previously described^14. Cobleigh, et al. J. Clin. Oncol. 17, 2639-2648 (1999). Lapatinib-resistant cells were grown in the presence of 1 μM lapatinib unless otherwise stated.

[2] = system: rBT474, rSKBR3, rAU565 and rSUM190 cells; experiment: Apoptotic cell death (Annexin V FACS) in lapatinib-resistant lines; type: cell-based; settings: all four resistant lines
Protocol: as §1, §2

[3] = system: CAS; experiment: Immunoblot of CAS protein levels; type: cell-based
Protocol: FIG. 11 is a set of photographs of immunoblots showing CAS degradation in lapatinib-resistant cells. FIG. 11A is an immunoblot for CAS and Actin. BT474 and rBT474 (left) or AU565 and rAU565 cells (right) cultured in the absence of lapatinib for one week were treated with 1 μM lapatinib and the cells were harvested at various time points. FIG. 11B is an immmunoblot for CAS and Actin. rBT474 cells were maintained in the presence of […] lapatinib and the cells were harvested at various time points following removal of lapatinib. FIG. 11C is an immunoblot for FLAG and actin. BT474 and rBT474 cells were transiently transfected with FLAG-tagged CAS and subsequently treated with 50 μg/ml cycloheximide (CHX) and 1 μM lapatinib and the cells were harvested at various time points. FIG. 11D is an immunoblot using HA to analyze ubiquitination of CAS. BT474 and rBT474 (left) or SKBR3 and rSKBR3 cells (right) were co-transfected with FLAG-CAS and HA-Ub. […] After treatment with 10 μM MG 132 for 8 hours, cells were harvested and FLAG-CAS was retrieved by immunoprecipitation. FIG. 11E is an immunoblot for FLAG-tagged proteins retrieved by immunoprecipitation and association with MDM2. H1299 cells were transfected with empty vector, FLAG-CAS^W127A, or FLAG-CAS wild type. FIG. 11F is an immunoblot for CAs after immunoprecipitation for FLAG. H1299 cells were transfected with empty vector, FLAG-CAS^W127A, or FLAG-CAS wild type. Cells were treated with 10 μM MG132 for 3 hours. […] SKBR3 cells were transfected with increasing amounts of MDM2. After 48 hours, cells were harvested and immunoblotted (*non-specific band). FIG. 11H is an immunoblot for CAS. […] FIG. 11I is an immunoblot for MDM2 or CAs after immunoprecipitation with FLAG. BT474 and rBT474 cells were transfected with FLAG-CAS. […] After treatment with 10 μM MG132 for 5 hours, FLAG-CAS was retrieved by immunoprecipitation and association of endogenous MDM2 was analyzed by immunoblotting.

[4] = system: Huwe1; experiment: Immunoblot of Huwe1 protein levels and stability; type: cell-based
Protocol: FIG. 13 is a set of immunoblots showing MDM2-mediated ubiquitylation and degradation of Huwe1 in lapatinib-resistant cells. […] Cells treated with 1 μM lapatinib were harvested at various time points and immunoblotted. […] FIG. 13B is an immunoblot for HA and actin. BT474 and rBT474 cells were transiently transfected with HA-tagged Huwe1 and subsequently treated with 50 μg/ml cycloheximide (CHX) and 1 μM lapatinib. FIG. 13C is an immunoblot for Huwe1 and MDM2. Immunoprecipitation was carried out using H1299 cell lysates and anti-Huwe1 antibody (or control IgG). FIG. 13D is an immunoblot for HA or MDM2 after immunoprecipitation with HA. BT474 cells were transfected with HA-tagged Huwe1 encoding the full-length protein, residues 1-2474, or residues 2473-4374. […] H1299 cells were transfected with empty vector, HA-Huwe1^W1202A, or HA-Huwe1 wild type. FIG. 13F is an immunoblot for Huwe1 and Actin. BT474 cells were transfected with increasing amounts of MDM2 and harvested after 48 hours. FIG. 13G is an immunoblot for Huwe1, MDM2, and actin. […] FIG. 13H is an immunoblot for Huwe1. Ubiquitylation of Huwe1 was reconstituted in vitro by incubating recombinant Huwe1 protein (Huwe1^1-2474) with E1, UbcH5 (E2), ubiquitin (Ub), and recombinant MDM2 protein in reaction buffer at 37° C. for 3 hours. […] Twenty-four hours later, the cells were replated and further transfected with HA-tagged Huwe1 (wild type). Forty-eight hours after siRNA transfection, the cells were treated with 1 μM lapatinib. After 24 hours of lapatinib treatment, 50 μg/ml cycloheximide (CHX) was added to the culture medium and cells were harvested at various time points for immunoblotting.

[5] = system: MDM2; experiment: Immunoblot of MDM2 protein levels; type: cell-based; settings: 1 μM lapatinib
Protocol: Cells treated with 1 μM lapatinib were harvested at various time points and immunoblotted. […] BT474 and rBT474 cells were transiently transfected with HA-tagged Huwe1 and subsequently treated with 50 μg/ml cycloheximide (CHX) and 1 μM lapatinib. […] Immunoprecipitation was carried out using H1299 cell lysates and anti-Huwe1 antibody (or control IgG). […] BT474 cells were transfected with HA-tagged Huwe1 encoding the full-length protein, residues 1-2474, or residues 2473-4374. […] BT474 cells were transfected with increasing amounts of MDM2 and harvested after 48 hours. […] SUM190 cells were transfected with Scrambled or MDM2-specific siRNA (100 nM) and harvested after 72 hours. […] Ubiquitylation of Huwe1 was reconstituted in vitro by incubating recombinant Huwe1 protein (Huwe1^1-2474) with E1, UbcH5 (E2), ubiquitin (Ub), and recombinant MDM2 protein in reaction buffer at 37° C. for 3 hours. […] Twenty-four hours later, the cells were replated and further transfected with HA-tagged Huwe1 (wild type). Forty-eight hours after siRNA transfection, the cells were treated with 1 μM lapatinib. After 24 hours of lapatinib treatment, 50 μg/ml cycloheximide (CHX) was added to the culture medium and cells were harvested at various time points for immunoblotting.

[6] = system: AU565-derived tumor; experiment: AU565 mammary fat pad xenograft; type: in vivo, mouse; settings: 100 mg/kg each drug, twice daily by oral gavage
Protocol: Six week-old female nude mice were purchased from NCI Frederic. Xenograft tumors were produced by injection into the mammary fat pad with cells (10×10^6). Tumor volumes were calculated every 3-4 days based on caliper measurements of the short (a) and long (b) tumor diameters (volume=a2b/2). […] Mice were dosed orally with vehicle alone, lapatinib (100 mg/kg), Nutlin-3 (100 mg/kg), or combination of both twice daily by gavage.

[7] = system: mitochondrial cytochrome c release; experiment: Western blot for cytochrome c in cytosolic lysates lacking mitochondria; settings: 1 μM lapatinib, 24 hours
[8] = resistant cells, 1 μM lapatinib

CS(=O)(=O)CCNCc1ccc(-c2ccc3ncnc(Nc4ccc(OCc5cccc(F)c5)c(Cl)c4)c3c2)o1 [lapatinib]
apoptotic cell death in response to lapatinib [1]: died from apoptosis | cell death in response to lapatinib treatment [2]: did not die | CAS protein levels ([3]; low-HER2 lines non-responsive to lapatinib (e.g., T47D cells)): did not alter | CAS protein levels ([3]; parental cells, 1 μM lapatinib): did not affect | CAS protein levels [3, 8]: declined over time | Huwe1 protein half-life ([4]; lapatinib-treated rBT474 cells compared to BT474 cells, 50 μg/ml cycloheximide): significantly shorter | Huwe1 protein levels ([4]; parental cells, 1 μM lapatinib): remained stable | Huwe1 levels [4, 8]: significantly decreased | MDM2 levels ([5]; parental cells): rapidly decreased | MDM2 levels ([5]; resistant cells): maintained | AU565-derived tumor growth [6]: substantially inhibited | mitochondrial cytochrome c release ([7]; parental BT474 cells): induced mitochondrial cytochrome c release in parental BT474 cells | mitochondrial cytochrome c release ([7]; rBT474 cells): not rBT474 cells
